According to publication PMC12598616, “Design and optimization of caspase-1-responsive fluorescent probes for pyroptosis imaging and anti-pyroptosis drug screening” (Chemical Science, 2025):

Test system: Cas-1 in primary chondrocytes
Experiment: Intracellular imaging in primary chondrocytes
Type: cell-based
Settings: H2O2 2 mM 30, 60, 90 min; FPy1 5 μM 1 h
Method: The decline in chondrocyte function plays a crucial role in the pathogenesis of OA. Inflammasome-mediated chondrocyte pyroptosis has been closely associated with matrix degradation and cartilage degeneration in OA.[38] To model OA in vitro, primary chondrocytes were stimulated with H2O2 (2 mM) for different durations, followed by staining with FPy1 (5 μM) and fluorescence imaging to monitor the progression of pyroptosis under oxidative stress. […] To better mimic the in vivo pathological features of OA, primary chondrocytes were also cultured as three-dimensional spheroids and stimulated with H2O2. […] Furthermore, we evaluated the capability of FPy1 to monitor pyroptosis progression at different stages of OA in a mouse model. […] The pathological manifestations in the corresponding tissues became more pronounced with longer modeling periods, consistent with the fluorescence imaging results obtained using FPy1. […]
Chondrocytes were isolated from articular cartilage and resuspended in 1mL DMEM/F12 medium containing 10 μM ITS-A. A total of […] were counted and transferred into centrifuge tubes. […]
The chondrocytes or 3D cell spheroids were seeded in dishes and cultured overnight. […] Fluorescence imaging was then performed with an excitation of 514 nm, and signals were […]

In the case of “–FLTDG– [FPy1, RhoB donor, hNR quencher]”, the “intracellular fluorescence intensity in primary chondrocytes” value is reported as “increased with prolonged H2O2 stimulation”.
